System: LNCaP cell lines
Assay: WST-1 Cell Proliferation and Viability Assay
Format: cell-based
Conditions: Homo sapiens, LNCaP cells
How it was run: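 LNCaP cells (5000/well, phenol-red-free RPMI-1640 with 10% FCS) were plated overnight, then exposed to compounds in 0.1% DMSO final for 18-72 hours at 37 °C. Viability was read by WST-1 conversion to formazan after 3 h further incubation, measured at A490-A650.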

[1] = compound incubation 18-72 hours
[2] = flagged "Estimated": based on actual data at different concentrations

| Structure (SMILES) | EC50 [1] [µM] | EC50 [2] [µM] |
| --- | --- | --- |
| Cc1ccc(O)c(C(=O)NCc2cccc(-c3ccccc3)c2)c1 [Compound 206] | 34 | – |
| Cc1oc(-c2ccccc2)nc1CCOc1ccc(Cl)cc1NC(=O)c1cc(Cl)ccc1O [Compound 132] | 5 | – |
| COc1ccccc1CCOc1cccc(NC(=O)c2cc(Cl)c(F)cc2O)c1 [Compound 355] | 15 | – |
| CN(CC(=O)O)c1ccc(NC(=O)c2cc(Cl)ccc2O)c(OCCc2cccc(C(F)(F)F)c2)c1 [Compound 375] | 19 | – |
| COCCN(C)c1ccc(NC(=O)c2cc(Cl)ccc2O)cc1C(F)(F)F [Compound 365] | 2 | – |
| COc1ccccc1CCOc1cccc(NC(=O)c2cc(-n3cccc3)ccc2O)c1 [Compound 233] | 10 | – |
| O=C(Nc1cc(Cl)ccc1Oc1ccc(Cl)c2ccccc12)c1cc(Cl)ccc1O [Compound 31] | 2 | – |
| O=C(Nc1cccc(OCCc2ccccc2C(F)(F)F)c1)c1cc(Cl)ccc1O [Compound 138] | 6 | – |
| O=C(Nc1cc(Cl)ccc1OCCc1cccc(Cl)c1)c1cc(Cl)ccc1O [Compound 109] | 1 | – |
| O=C(Nc1ccccc1OC1CCCC[C@H]1c1ccccc1)c1cc(Cl)ccc1O (some centres unmarked) [Compound 126] | 6 | – |
| Cc1ccc(NC(=O)c2cc(Cl)ccc2O)cc1 [Compound 114] | 10 | – |
| O=C(Nc1cc(C(F)(F)F)ccc1NCc1cccc2ccccc12)c1cc(Cl)ccc1O [Compound 277] | 3 | – |
| O=C(Nc1cc(Cl)ccc1OCC(c1ccccc1)c1ccccc1)c1cc(Cl)ccc1O [Compound 117] | 2 | – |
| O=C(Nc1cc(C(F)(F)F)ccc1OCCc1cccc(OC(F)(F)F)c1)c1cc(Cl)ccc1O [Compound 285] | 0.9 | – |
| CC(C)c1cc(C(=O)Nc2cccc(OCCc3ccccc3)c2)c(O)c(C(C)C)c1 [Compound 200] | 37 | – |
| CN(CC(=O)OC(C)(C)C)c1ccc(NC(=O)c2cc(Cl)ccc2O)cc1C(F)(F)F [Compound 372] | 2 | – |
| O=C(NCCc1cccc(OCCc2ccccc2)c1)c1cc(Cl)ccc1O [Compound 143] | 14 | – |
| O=C(Nc1cccc(OCCCc2ccccc2)c1)c1cc(Cl)ccc1O [Compound 96] | 10 | – |
| COc1ccccc1CCOc1cccc(NC(=O)c2ccc(F)cc2O)c1 [Compound 180] | 12 | – |
| O=C(Nc1cc(OCCc2ccccc2)c(Cl)cc1Cl)c1cc(Cl)ccc1O [Compound 92] | 2 | – |
| COc1ccccc1CCOc1cccc(NC(=O)c2cc(-c3ccc(F)cc3F)ccc2O)c1 [Compound 223] | 8 | – |
| O=C(NCc1cccc(-c2cccc(C(F)(F)F)c2)c1)c1cc(Cl)ccc1O [Compound 304] | 18 | – |
| O=C(Nc1cc(C(F)(F)F)cc(Cl)c1OCCc1cccc(C(F)(F)F)c1)c1cc(Cl)ccc1O [Compound 252] | 1 | – |
| O=C(Nc1cc(Cl)cc(Cl)c1OCCc1ccc(CC(F)(F)F)cc1)c1cc(Cl)ccc1O [Compound 163] | 2 | – |

| Structure (SMILES) | EC50 [1] [µM] | EC50 [2] [µM] |
| --- | --- | --- |
| Cc1cc(OCCc2ccccc2C(F)(F)F)c(NC(=O)c2cc(Cl)ccc2O)cc1Cl [Compound 136] | 1 | – |
| O=C(NCc1ccc(Cl)c(C(F)(F)F)c1)c1cc(Cl)ccc1O [Compound 290] | – | 30 |
| COC(=O)C=Cc1ccccc1CCOc1ccc(Cl)cc1NC(=O)c1cc(Cl)ccc1O [Compound 302] | 3 | – |
| CC(C)OCCOc1ccc(C(F)(F)F)cc1NC(=O)c1cc(Cl)ccc1O [Compound 296] | 0.8 | – |
| COc1ccccc1CCOc1cccc(NC(=O)c2cc(Cl)ccc2[N+](=O)[O-])c1 [Compound 229] | – | 30 |
| COc1ccccc1CCOc1cccc(NC(=O)c2cc(Cl)ccc2NS(C)(=O)=O)c1 [Compound 337] | 19 | – |
| COc1ccccc1CCOc1cccc(NC(=O)c2cc(-c3ccc(Cl)cc3)ccc2O)c1 [Compound 351] | 11 | – |
| Cc1cc(OCCc2ccccc2)c(NC(=O)c2cc(Cl)ccc2O)cc1Cl [Compound 153] | 1 | – |
| O=C(NCCc1ccccc1OCc1ccccc1)c1cc(Cl)ccc1O [Compound 119] | – | 20 |
| CC(=O)Nc1cc(F)c(F)cc1C(=O)Nc1cccc(OCCc2ccccc2)c1 [Compound 7] | – | 30 |
| O=C(Nc1cc(Cl)ccc1OCc1ccccc1)c1cc(Cl)ccc1O [Compound 289] | 3.3 | – |
| O=C(Nc1cc(C(F)(F)F)cc(Cl)c1OCCc1ccccc1C(F)(F)F)c1cc(Cl)ccc1O [Compound 251] | 2 | – |
| O=C(Nc1cccc(OC2CCCC[C@H]2c2ccccc2)c1)c1cc(Cl)ccc1O (some centres unmarked) [Compound 17] | 2 | – |
| COc1cccc(-c2ccc(O)c(C(=O)Nc3cccc(OCCc4ccccc4OC)c3)c2)c1 [Compound 235] | 6 | – |
| O=C(Nc1ccccc1C(=O)NCc1ccccc1)c1cc(Cl)ccc1O [Compound 255] | – | 30 |
| CCN(CC)c1ccc(NC(=O)c2cc(Cl)ccc2O)c(OCCc2cccc(C(F)(F)F)c2)c1 [Compound 360] | 2.4 | – |
| O=C(Nc1cc(C(F)(F)F)ccc1N1CCCC(C(=O)O)C1)c1cc(Cl)ccc1O (centres unmarked) [Compound 316] | – | 40 |
| O=C(Nc1cc(COCc2ccccc2)ccc1Cl)c1cc(Cl)ccc1O [Compound 279] | 6 | – |
| COCCN(C)c1ccc(NC(=O)c2cc(Cl)ccc2O)c(OCCc2cccc(C(F)(F)F)c2)c1 [Compound 369] | 4 | – |
| O=C(Nc1cc(Cl)ccc1OCCc1ccccc1C(F)(F)F)c1cnc2cc(C(F)(F)F)ccc2c1O [Compound 167] | 6 | – |
| O=C(Nc1cccc(OC2CCCCC2c2ccc(Cl)cc2)c1)c1cc(Cl)ccc1O (centres unmarked) [Compound 282] | 4 | – |
| Cc1ccc(C(=O)Nc2cccc(OCCc3ccccc3)c2)c(O)c1 [Compound 211] | 22 | – |
| O=C(Nc1cc(C(F)(F)F)ccc1NCCc1ccccc1Cl)c1cc(Cl)ccc1O [Compound 276] | 4 | – |
